Target: T1, human H4 receptor (Homo sapiens, UniProt Q9H3N8)
T1 construct: expressed in transfected cells; host or cells: HEK 293T cells, transient transfection with polyethyleneimine
Test: [3H]Histamine binding assay (radioligand displacement at the human H4 receptor)
Conditions: [3H]histamine displacement, membranes of HEK 293T cells transfected with human H4R; read-out: Activity Class* (Ki in H4 binding assay)

Ki, < 1000 nM:
CN1CCN(c2nc(NCCS(=O)(=O)Nc3ccc(I)cc3)c3cc(Cl)ccc3n2)CC1 [Example 8, 2-(6-chloro-2-(4-methylpiperazin-1-yl)quinazoline-4-amino)-N-(4-iodophenyl)ethanesulfonamide]
CN1CCN(c2nc(NCCS(=O)(=O)Nc3ccccc3)c3cc(Cl)c(Cl)cc3n2)CC1 [Example 12, 2-(6,7-dichloro-2-(4-methylpiperazin-1-yl)quinazoline-4-amino)-N-phenylethanesulfonamide]
CN1CCN(c2nc(NCCS(=O)(=O)Nc3ccccc3)c3cc(Cl)cc(Cl)c3n2)CC1 [Example 14]
CN1CCN(c2nc(NCCS(=O)(=O)Nc3ccccc3)c3ccc(Cl)c(Cl)c3n2)CC1 [Example 16, 2-(7,8-dichloro-2-(4-methylpiperazin-1-yl)quinazoline-4-amino)-N-phenylethanesulfonamide]
CN1CCN(c2nc(NCCS(=O)(=O)Nc3ccccc3)c3c(Cl)cc(Cl)cc3n2)CC1 [Example 17, 2-(5,7-dichloro-2-(4-methylpiperazin-1-yl)quinazoline-4-amino)-N-phenylethanesulfonamide]

Reference: patent US8530486B2, “Quinazolines and related heterocyclic compounds, and their therapeutic use” (Vereniging Voor Christelijk Hoger Onderwijs, …, priority 2008, dated 2013)
